Measured values published in paper PMC4408270 (Bioorganic & medicinal chemistry letters, 2015).
Substitutions are numbered along the chain they refer to. “Also recorded” adds a separate entry of the source. Read-outs that look alike come from different tables or passages of the source.

Key:
[1] = biological target: T1, CCK2R (Homo sapiens, UniProt P32239); assay: Intracellular calcium response in CHO-CCK2R cells; format: cell-based
T1 sequence (P32239 1-447): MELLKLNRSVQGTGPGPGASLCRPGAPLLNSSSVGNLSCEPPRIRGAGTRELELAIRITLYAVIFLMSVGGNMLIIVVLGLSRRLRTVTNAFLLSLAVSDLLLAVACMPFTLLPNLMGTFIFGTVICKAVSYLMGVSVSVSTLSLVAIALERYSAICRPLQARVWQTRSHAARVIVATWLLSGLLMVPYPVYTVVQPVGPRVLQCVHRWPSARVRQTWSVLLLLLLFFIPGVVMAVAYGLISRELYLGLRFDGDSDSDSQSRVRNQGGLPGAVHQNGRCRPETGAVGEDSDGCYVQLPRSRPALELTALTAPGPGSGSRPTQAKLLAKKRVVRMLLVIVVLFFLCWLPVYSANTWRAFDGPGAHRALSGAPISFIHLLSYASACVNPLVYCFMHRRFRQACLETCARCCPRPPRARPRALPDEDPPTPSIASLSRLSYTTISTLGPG

[2] = biological target: T2, CCK1R (Homo sapiens, UniProt P32238); format: cell-based
T2 sequence (P32238 1-428): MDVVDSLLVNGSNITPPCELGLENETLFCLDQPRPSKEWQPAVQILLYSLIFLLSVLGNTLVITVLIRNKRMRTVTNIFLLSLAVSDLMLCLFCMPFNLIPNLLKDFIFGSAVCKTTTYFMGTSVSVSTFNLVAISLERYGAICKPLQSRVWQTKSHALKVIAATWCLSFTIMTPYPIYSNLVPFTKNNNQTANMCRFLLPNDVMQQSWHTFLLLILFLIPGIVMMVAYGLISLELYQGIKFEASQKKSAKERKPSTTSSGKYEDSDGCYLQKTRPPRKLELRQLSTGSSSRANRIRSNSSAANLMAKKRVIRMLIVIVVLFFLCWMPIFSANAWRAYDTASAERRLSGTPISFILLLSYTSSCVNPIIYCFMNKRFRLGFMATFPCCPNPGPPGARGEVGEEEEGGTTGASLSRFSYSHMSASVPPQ

[3] = biological target: T2, CCK1R; assay: Intracellular calcium response in CHO-CCK1R cells; format: cell-based; details: % of the ATP (0.1mM) positive control
[4] = biological target: T3, CCK2R TM6 (V6.51I, Y6.52F) (Homo sapiens, UniProt P32239, V349I/Y350F); assay: 125I-BDZ-2 competition binding, chimeric construct
T3 sequence (P32239 1-447 V349I/Y350F): T1 sequence (P32239 1-447) with V349I, Y350F

[5] = biological target: T4, CCK2R TM2 (T2.61N) (Homo sapiens, UniProt P32239, T111N); assay: 125I-BDZ-2 competition binding, chimeric construct; details: NDB = no detectable binding
T4 sequence (P32239 1-447 T111N): T1 sequence (P32239 1-447) with T111N

[6] = biological target: T5, CCK2R TM3 (V3.28T, S3.29T) (Homo sapiens, UniProt P32239, S131T/V130T); assay: 125I-CCK competition binding, chimeric construct
T5 sequence (P32239 1-447 V130T/S131T): T1 sequence (P32239 1-447) with V130T, S131T

[7] = biological target: T3, CCK2R TM6 (V6.51I, Y6.52F); assay: 125I-CCK competition binding, chimeric construct
[8] = test system: CCK2R TM chimeric constructs; assay: 125I-BDZ-2 competition binding, CCK2R-based chimeras as a group
[9] = biological target: T1, CCK2R; assay: Competition binding of orthosteric radioligand 125I-CCK, CHO cell membranes; details: 125I-CCK radioligand
[10] = biological target: T4, CCK2R TM2 (T2.61N); assay: 125I-CCK competition binding, chimeric construct
[11] = biological target: T2, CCK1R; assay: Competition binding of orthosteric radioligand 125I-CCK, CHO cell membranes

SMILES: O=C(CN1C(=O)C(NC(=O)Nc2ccccc2)C(=O)N(c2ccccc2)c2ccccc21)Nc1ccccc1 (stereo not drawn)
- Intracellular calcium response at CCK2R-expressing cells [1]: stimulated no intracellular calcium responses
- Decrease in efficacy of the CCK response ([2]; 1µM compound): 11%

SMILES: CC(C)N(C(=O)CN1C(=O)[C@H](NC(=O)Nc2cccc(C(=O)O)c2)C(=O)N(c2ccccc2)c2ccccc21)c1ccccc1 [GI181771X, reference compound]
- Allosteric modulatory (PAM) activity on CCK dose-response curve ([2]; increasing concentrations of compound): did not yield a significant left-shift or an increase in efficacy; also recorded: no PAM activity

SMILES: COc1ccc(N(C)C(=O)CN2C(=O)C(NC(=O)Nc3ccccc3)C(=O)N(c3ccccc3)c3ccccc32)cc1 (stereo not drawn) [GR135470X]
- Intrinsic agonist response ([3]; 100nM compound): 43%
- Intrinsic agonist response ([3]; 1µM compound): 48%
- Intracellular calcium response at CCK2R-expressing cells [1]: stimulated no intracellular calcium responses
- IC50 [4]: 36 ± 5.5 nM
- IC50, 125I-BDZ-2 [5]: NDB
- IC50 [6]: 10.1 ± 1.6 nM
- Shift to the right in the CCK dose-response curve ([2]; 100nM compound): 3.6 fold
- Decrease in efficacy of the CCK response ([2]; 1µM compound): 14%
- Shift to the right in the CCK dose-response curve ([2]; 1µM compound): 8.5 fold
- IC50 [7]: 165 ± 38 nM
- Change in binding affinity at chimeras vs wild type CCK2R [8]: none of the chimeras tested exhibited a change in binding affinities
- Fold lower IC50 at CCK2R than at CCK1R [9]: ~ 9 fold
- IC50 [10]: 519 ± 138 nM
- Right shift (poorer affinity) vs wild type CCK2R ([10]; 125I-CCK, CCK2R TM2 substitution): 10 fold
- IC50 [11]: 450 ± 104 nM
